Experimental data as given in patent US9995734B2, “Human T cell line assay for evaluating the immunologic identity of glatiramer acetate preparations” (Mylan Inc., priority 2013, dated 2018).
“And” between values parts separate entries of the source, which are not always exact repeats. Equal values may be shown once.

Key:
Donor 4 COP T-Cell Lines = assay: ATP proliferation assay (CellTiter Glo), Donor 4 COP T-cell lines, incl. reactivity to non-canonical GA peptides; format: cell-based, human; conditions: for response to GMA in comparison to COP: 10 μg/mL dose; for Mean, ATP proliferation assay: Cell Line 205-1F4; for Proliferation (luminescent ATP assay), Mean: T-cell line 205-1F4, autologous B-LCL; for Reactivity (proliferation), Mean: T-cell line 205-1H3, 0 μg/mL 4121.0; for Non-Canonical Peptide Non-Reactivity: proliferation <2 times no antigen control
Donor 1 COP T-Cell Lines = assay: ATP proliferation assay (CellTiter Glo), Donor 1 COP T-cell lines, incl. reactivity to non-canonical GA peptides; format: cell-based, human; conditions: for response to GMA in comparison to COP: 10 μg/mL dose; for ATP Proliferation Assay, Mean: Day 56, second assay; for ATP proliferation assay / luminescent ATP proliferation assay, mean: Day 56; for ATP proliferation assay: 48 hours after stimulation; for luminescent ATP proliferation assay, mean: no antigen 5673 (Table 9); for Proliferation (luminescent ATP assay), Mean: Day 56 of culturing
Experimental: Proliferation was evaluated by measuring ATP content using a luminescent method (CellTiter Glo Luminescent Cell Viability Assay, Promega, Madison, Wis., cat. #G7571) or by measuring BrdU uptake by ELISA (Millipore cat. #2752), in both cases following kit instructions. A split well format was used. Cells in each well were resuspended and 65 μl transferred to the wells of each of two new U-bottom 96-well plates, to generate the replicate plates. For the initial screening, the original 96-well plate received mitomycin-treated autologous PBMC as APC plus 10 μg/mL antigen (GA). A first replicate plate received 100 μl., mitomycin-treated PBMC alone (2×10^5), and no antigen, and a second replicate plate received 100 μL mitomycin-treated PBMC plus GA at a final concentration of 10 μg/mL. Therefore, all three plates received autologous APC (PBMC) treated with mitomycin C to prevent cell division. […] The latter two plates were incubated for 3 days at 37° C., 6% CO2 before adding CellTiter Glo or BrdU and measuring signal. IL-2 was added at 10 U/mL to the original 96-well plate for expansion on Day 17. For subsequent screenings, mitomycin-treated EBV-transformed autologous B-LCL (2×10^5 to 5×10^5 cells/mL) were used as APC.
COP-responsive T-cell lines were obtained from Donor 1. In the initial stimulation, isolated PBMC were plated at 1×10^5 cells per well (5×10^5 cells/mL) with 10 μg/mL Copaxone and cultured as described above. IL-2 was added to all wells on Days 4 and 7 of culture, and the wells screened for reactivity on Day 14 using a luminescent proliferation assay in split well format. The original plate was restimulated, and IL-2 added 4 days after restimulation.
(§1) T-cell line 222-2D8, generated from Donor 1 by initial stimulation with COP, was shown in at least two experiments to proliferate comparably following restimulation with GMA and COP. […] ATP levels were measured at 48 hours after stimulation. The control in the GMA series was no antigen, and the control in the COP series was MBP. The response to GMA in comparison to COP at the 10 μg/mL dose in this assay was 103.4%.
In a second ATP proliferation assay, carried out on Day 56 or culturing following stimulation with 1, 3, or 10 μg/mL of GMA or COP, the response to GMA in comparison to COP at the 10 μg/mL dose was 107.1%.
as §1, with “line 222-2F1,” for “line 222-2D8,”, “Donor 222” for “Donor 1”, “was 85.1%.” for “was 103.4%.”
On Day 56 of culturing, after six total rounds of stimulation, cell line 222-2F12 was assayed for proliferation in response to stimulation with GA and a series of non-canonical peptides. For the assay, 0, 3, 10, or 30 μg/mL of each of peptides GL 14, GLT 631, GAT 111, and GAT 631, COP, and GMA, were added to the T-cell lines at 1×10^5 cells/mL, in the presence of mitomycin C-treated autologous B-LCL. Proliferation was measured by luminescent ATP assay. Cell line 222-2F12 responded to GL 14 at 3 μg/mL, and not to the other non-canonical GA peptides tested. The response to GMA in comparison to COP at the 10 μg/mL dose in this assay was 99.4%.
The cultures were restimulated on days 46, 56, 67 and 75. On Day 56, cell lines 222-2D8, 222-1H12, 222-2F12, 222-2B8, 222-105, 222-2B11, and 222-2E1 again were tested for reactivity to stimulation with 1, 3, or 10 μg/mL of GMA or COP in a proliferation assay. ATP levels were measured in all seven cell lines at 48 hours (results in FIGS. 5A-G) after stimulation. The control in the GMA series was no antigen, and the control in the COP series was MBP. […]

glatiramer acetate [GMA]
response to GMA in comparison to COP (Donor 4 COP T-Cell Lines; 205-1F4, Day 50 (Table 27)): 102.7%
response to GMA in comparison to COP (Donor 4 COP T-Cell Lines; 205-1F4, Day 58 (Table 28)): 98.5%
response to GMA in comparison to COP (Donor 4 COP T-Cell Lines; 205-1F4, Day 71): 101.3%
Mean, ATP proliferation assay (Donor 4 COP T-Cell Lines; Day 50, 1 μg/mL): 17341
Mean, ATP proliferation assay (Donor 4 COP T-Cell Lines; Day 50, 3 μg/mL): 195335
Mean, ATP proliferation assay (Donor 4 COP T-Cell Lines; Day 50, 10 μg/mL): 218954
Mean, ATP proliferation assay (Donor 4 COP T-Cell Lines; Day 58, 3 μg/mL): 29921
Mean, ATP proliferation assay (Donor 4 COP T-Cell Lines; Day 58, 10 μg/mL): 30998
Mean, ATP proliferation assay (Donor 4 COP T-Cell Lines; Day 58, 30 μg/mL): 33915
Mean, ATP proliferation assay (Donor 4 COP T-Cell Lines; Day 58, 100 μg/mL): 32698
Proliferation (luminescent ATP assay), Mean (Donor 4 COP T-Cell Lines; Day 71, 1 μg/mL antigen): 17341
Proliferation (luminescent ATP assay), Mean (Donor 4 COP T-Cell Lines; Day 71, 3 μg/mL antigen): 195335
Proliferation (luminescent ATP assay), Mean (Donor 4 COP T-Cell Lines; Day 71, 10 μg/mL antigen): 218954
Proliferation (luminescent ATP assay), Mean (Donor 4 COP T-Cell Lines; Day 80, 1 μg/mL antigen): 7,477
Proliferation (luminescent ATP assay), Mean (Donor 4 COP T-Cell Lines; Day 80, 2 μg/mL antigen): 64,999
Proliferation (luminescent ATP assay), Mean (Donor 4 COP T-Cell Lines; Day 80, 5 μg/mL antigen): 83,107
Proliferation (luminescent ATP assay), Mean (Donor 4 COP T-Cell Lines; Day 80, 10 μg/mL antigen): 67,482
Reactivity (proliferation), Mean (Donor 4 COP T-Cell Lines; 1 μg/mL antigen): 37654.3
Reactivity (proliferation), Mean (Donor 4 COP T-Cell Lines; 3 μg/mL antigen): 55284.3
Reactivity (proliferation), Mean (Donor 4 COP T-Cell Lines; 10 μg/mL antigen): 60841.7
response to GMA in comparison to COP (Donor 1 COP T-Cell Lines; 222-2D8, Day 56 (Table 6)): 103.4%
response to GMA in comparison to COP (Donor 1 COP T-Cell Lines; 222-2D8, second assay (Table 7)): 107.1%
ATP Proliferation Assay, Mean (Donor 1 COP T-Cell Lines; 222-2D8, 1 μg/mL (Table 7)): 2078
ATP Proliferation Assay, Mean (Donor 1 COP T-Cell Lines; 222-2D8, 3 μg/mL (Table 7)): 149752
ATP Proliferation Assay, Mean (Donor 1 COP T-Cell Lines; 222-2D8, 10 μg/mL (Table 7)): 156417
ATP proliferation assay (Donor 1 COP T-Cell Lines; 222-2D8, 1 μg/mL (Table 6)): 4369
ATP proliferation assay (Donor 1 COP T-Cell Lines; 222-2D8, 3 μg/mL (Table 6)): 7480
ATP proliferation assay (Donor 1 COP T-Cell Lines; 222-2D8, 10 μg/mL (Table 6)): 12793
response to GMA in comparison to COP (Donor 1 COP T-Cell Lines; 222-2F12 (printed 222-2F1), Day 56 (Table 8)): 85.1%
response to GMA in comparison to COP (Donor 1 COP T-Cell Lines; 222-2F12, Day 56 (Table 9)): 99.4%
luminescent ATP proliferation assay, mean (Donor 1 COP T-Cell Lines; 222-2F12, 3 μg/mL): 232779
luminescent ATP proliferation assay, mean (Donor 1 COP T-Cell Lines; 222-2F12, 10 μg/mL): 228761
luminescent ATP proliferation assay, mean (Donor 1 COP T-Cell Lines; 222-2F12, 30 μg/mL): 125994
ATP proliferation assay (Donor 1 COP T-Cell Lines; 222-2F12, 1 μg/mL (Table 8)): 6500
ATP proliferation assay (Donor 1 COP T-Cell Lines; 222-2F12, 3 μg/mL (Table 8)): 8520
ATP proliferation assay (Donor 1 COP T-Cell Lines; 222-2F12, 10 μg/mL (Table 8)): 12382
Proliferation (luminescent ATP assay), Mean (Donor 1 COP T-Cell Lines; T-cell line 222-1H12, 3 μg/mL antigen, 0 μg/mL 5974): 141486 RLU
Proliferation (luminescent ATP assay), Mean (Donor 1 COP T-Cell Lines; T-cell line 222-1H12, 10 μg/mL antigen, 0 μg/mL 5974): 167193 RLU
Proliferation (luminescent ATP assay), Mean (Donor 1 COP T-Cell Lines; T-cell line 222-1H12, 30 μg/mL antigen, 0 μg/mL 5974): 82376 RLU
Proliferation (luminescent ATP assay), Mean (Donor 1 COP T-Cell Lines; T-cell line 222-2F12, 3 μg/mL antigen, 0 μg/mL 5673): 232779
Proliferation (luminescent ATP assay), Mean (Donor 1 COP T-Cell Lines; T-cell line 222-2F12, 10 μg/mL antigen, 0 μg/mL 5673): 228761
Proliferation (luminescent ATP assay), Mean (Donor 1 COP T-Cell Lines; T-cell line 222-2F12, 30 μg/mL antigen, 0 μg/mL 5673): 125994

poly (Glu-Ala-Tyr; 1:1:1) [GAT 111]
Non-Canonical Peptide Non-Reactivity (Donor 4 COP T-Cell Lines; 205-1F4): GAT 111
Non-Canonical Peptide Non-Reactivity (Donor 4 COP T-Cell Lines; 205-1H3): GAT 111
reactivity to non-canonical GA peptides (Donor 4 COP T-Cell Lines; 205-1H7, after seven stimulations, 0, 1, 10, 30 μg/mL): not
Non-Canonical Peptide Non-Reactivity (Donor 4 COP T-Cell Lines; 205-1H7): GAT 111
Non-Canonical Peptide Non-Reactivity (Donor 4 COP T-Cell Lines; 205-1H11): GAT 111
Nonreactive T-Cell Line (Donor 4 COP T-Cell Lines; Donor 4 COP lines, stimulation with the non-canonical GA peptide): 205-1F4 (Donor 4) and 205-1H3 (Donor 4) and 205-1H7 (Donor 4) and 205-1H11 (Donor 4)
Proliferation (luminescent ATP assay), Mean (Donor 4 COP T-Cell Lines; Day 71, 1 μg/mL antigen): 2002
Proliferation (luminescent ATP assay), Mean (Donor 4 COP T-Cell Lines; Day 71, 3 μg/mL antigen): 2163
Proliferation (luminescent ATP assay), Mean (Donor 4 COP T-Cell Lines; Day 71, 10 μg/mL antigen): 2275
luminescent ATP proliferation assay, mean (Donor 1 COP T-Cell Lines; 222-2F12, 3 μg/mL): 3914
luminescent ATP proliferation assay, mean (Donor 1 COP T-Cell Lines; 222-2F12, 10 μg/mL): 3590
luminescent ATP proliferation assay, mean (Donor 1 COP T-Cell Lines; 222-2F12, 30 μg/mL): 2430
Non-Canonical Peptide Non-Reactivity (Donor 1 COP T-Cell Lines; 222-2F12, proliferation <2 times no antigen control): GAT 111
Nonreactive T-Cell Line (Donor 1 COP T-Cell Lines; Donor 1 COP lines, stimulation with the non-canonical GA peptide): 222-2F12 (Donor 1) and 222-1H12 (Donor 1)
